Assay results from US9718823B2, “2, 6-Di-nitrogen-containing substituted purine derivative, and preparation method, pharmaceutical composition and use thereof” (Zhejiang Medicine Co., Ltd. Xinchang Pharmaceutical Factory, priority 2013, dated 2017).

Legend:
[1] = system: PC-3 human prostate cancer cell strain; assay: Antitumor cell proliferation in vitro, CCK-8 detection kit, PC-3; assay type: cell-based; settings: PC-3 cells, 1st and 2nd test where printed
Description: (§1) The half inhibitory concentration IC50 of proliferation of three kinds of tumor cell strain (U87MG, PC-3, BT474) for 12 candidate compounds of the present invention is detected by CCK-8 detection kits.
PC-3 human prostate cancer cell strain (cell bank of Chinese Academy of Sciences)
(§2) The studied compounds are dissolved by DMSO to make the final concentration 10 mM.
(§3) • a) Collecting the cells in logarithmic phase, counting, and resuspending the cells with complete medium. • b) Adjusting the concentration of cells to a suitable concentration, inoculating in 96 well plates, each well is inoculated to 100 μl cell suspension.
(§4) c) incubating cells for 24 hours in a 5% CO2 incubator at temperature of 37° C., under the condition of 100% relative humidity.
(§5) a) The cells in logarithmic phase is collected, counted, resuspended with complete medium. The concentration of cells is adjusted to a suitable concentration (determined in accordance with the optimizable test results of cell density), and the cells is inoculated in 96 well plates, wherein each well is inoculated 100 μl cell suspension, Cells are incubated for 24 hours in 5% CO2 incubator at temperature of 37° C. under the condition of 100% relative humidity.
(§6) b) The test compounds are diluted to 500 μM with culture medium, then diluted in series eight times. […] as 25 μl/well. The final concentrations of the compounds are diluted from 100 μM to 0 μM, with 4 times dilution, and there are a total of 10 concentration points.
(§7) c) Cells are incubated for 72 hours in 5% CO2 incubator at temperature of 37° C. under the condition of 100% relative humidity.
(§8) d) The culture medium is aspirated and discarded, and complete medium containing 10% CCK-8 is incubated in a incubator at 37° C. for 2˜4 hours.
(§9) e) After shocking gently, the absorbance of the culture medium is measured at 450 nm wavelength on SpectraMax M5 Microplate Reader, with the absorbance at 650 nm as reference, to calculate the inhibition rate.

[2] = system: BT474 human breast cancer cell strain; assay: Antitumor cell proliferation in vitro, CCK-8 detection kit, BT474; assay type: cell-based; settings: BT-474 cells, 1st and 2nd test where printed
Description: as §1
BT474 human breast cancer cell strain (cell bank of Chinese Academy of Sciences) Reagents and materials:
as §2, §3, §4, §5, §6, §7, §8, §9

[3] = system: PC-3 cell Akt (Ser473) phosphorylation; assay: Inhibition of phosphorylation level of PC-3 cell Akt (Ser473), Cisbio HTRF phospho Akt (Ser473) cell-based assay; parameters: species or system human; settings: hEGF 100 ng/ml stimulation, 1st and 2nd test where printed
Description: The inhibitory activity of the compounds of present invention to the phosphorylation level of PC-3 cell Akt (Ser473) is studied by using Cisbio HTRF phospho Akt (Ser473) cell-based assay test kit.
Cell strain: PC-3 prostate cancer cells line (cell bank of Chinese Academy of Sciences) is cultured by using culture medium (F12K+10% FBS).
hEGF is prepared as stock solution of 100 ug/ml with 10 mM acetic acid, and the stock solution is diluted to 200 ng/ml with serum-free medium, added 50 ul to each well to be stimulated.
b) Preparation of Complete Lysate • 4×Lysis Buffer is diluted 4 times with ddH2O to prepare 1×Lysis Buffer. • 100×Blocking Reagent is diluted 100 times with 1×Lysis Buffer.
c) Preparation of Detection Liquid • 20×Anti-Phospho-Akt is diluted 20 times with Detection Buffer. • 20×Anti-Akt is diluted 20 times with Detection Buffer.
The compounds are diluted with DMSO, and the working concentration of compounds is 100 times of detection concentration.
Cells in logarithmic growth phase are collected, counted, and resuspended with complete culture medium;
The cell concentration is adjusted to appropriate concentration, and cell suspension is inoculated into 96 well plates at 50 μl per well;
Cells are incubated for more than 4 h in the 5% CO2 incubator at temperature of 37° C., relative humidity of 100%;
Cell plate is removed from the incubator. The cell suspension is aspirated gently, and 50 ul serum-free F12K medium is quickly added, then the cell plate is placed into the incubator to culture overnight.
The compounds are diluted in a linear gradient with DMSO.
0.5 ul compounds is added into the test well, mixed on oscillators, and incubated at room temperature for 2 hours.
Proportioned hEGF solution is added to test well at 50 μl per well, and the final concentration is 100 ng/ml. serum-free medium is added into The negative control well at 50 μl per well.
The solution is mixed on oscillator and incubated at room temperature for 2 hours.
The liquid in 96 well plates is aspirated by multichannel pipette or the supernatant is discarded gently. The proportioned complete lysate is added quickly at 50 μl per well.
The solution is mixed on oscillator and lysed at room temperature for 30 min.
16 μl cell lysate is transferred from the 96 well plates to white low volume 384 well plates, and the proportioned two pairs of detection antibody are added. The solution is mixed on oscillator, and incubated at room temperature for 4 hours to detect the readings.

[4] = molecular target: T1, PI3Kδ (Homo sapiens, UniProt O00329); assay: Inhibitory activity to PI3K δ, PI 3-Kinase (human) HTRF Assay kit; assay type: biochemical; settings: for inhibition at 0.4 µM / inhibition at 2 µM / inhibition at 10 µM: read-out: Inhibition rate % to PI3K delta; for Inhibition rate % to PI3K delta: dihydrate di-methanesulfonate
T1 construct: purchased Millipore 14-604
T1 sequence (O00329 whole entry): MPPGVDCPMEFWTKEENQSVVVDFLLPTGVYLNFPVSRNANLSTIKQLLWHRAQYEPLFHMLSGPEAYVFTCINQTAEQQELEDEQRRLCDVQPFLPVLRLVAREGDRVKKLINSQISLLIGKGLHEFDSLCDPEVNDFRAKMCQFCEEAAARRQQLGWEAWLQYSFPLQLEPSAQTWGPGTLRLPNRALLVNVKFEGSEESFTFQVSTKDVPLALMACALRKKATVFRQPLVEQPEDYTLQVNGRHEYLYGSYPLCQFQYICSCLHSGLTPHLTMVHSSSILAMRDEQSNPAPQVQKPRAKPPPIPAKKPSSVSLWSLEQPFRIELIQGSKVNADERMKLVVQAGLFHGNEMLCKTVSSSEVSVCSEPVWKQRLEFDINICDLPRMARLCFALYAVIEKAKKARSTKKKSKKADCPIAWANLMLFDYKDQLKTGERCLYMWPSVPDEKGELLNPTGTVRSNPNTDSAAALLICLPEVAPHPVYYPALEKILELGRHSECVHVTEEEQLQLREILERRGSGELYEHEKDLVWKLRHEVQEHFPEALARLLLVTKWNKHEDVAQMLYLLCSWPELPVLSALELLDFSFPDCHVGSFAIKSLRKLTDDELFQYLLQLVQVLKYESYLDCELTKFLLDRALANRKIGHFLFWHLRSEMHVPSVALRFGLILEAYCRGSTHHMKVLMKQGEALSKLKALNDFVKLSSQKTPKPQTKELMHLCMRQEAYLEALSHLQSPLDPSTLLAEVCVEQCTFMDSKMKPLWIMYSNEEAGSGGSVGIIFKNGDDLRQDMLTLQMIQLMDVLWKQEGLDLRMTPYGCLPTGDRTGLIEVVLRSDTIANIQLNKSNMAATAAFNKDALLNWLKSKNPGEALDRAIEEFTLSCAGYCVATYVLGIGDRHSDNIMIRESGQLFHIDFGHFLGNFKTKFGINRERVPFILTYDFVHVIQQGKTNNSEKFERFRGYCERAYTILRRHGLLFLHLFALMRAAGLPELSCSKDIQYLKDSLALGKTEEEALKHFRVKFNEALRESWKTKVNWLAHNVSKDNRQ
T1 sequence (P27986 whole entry partner): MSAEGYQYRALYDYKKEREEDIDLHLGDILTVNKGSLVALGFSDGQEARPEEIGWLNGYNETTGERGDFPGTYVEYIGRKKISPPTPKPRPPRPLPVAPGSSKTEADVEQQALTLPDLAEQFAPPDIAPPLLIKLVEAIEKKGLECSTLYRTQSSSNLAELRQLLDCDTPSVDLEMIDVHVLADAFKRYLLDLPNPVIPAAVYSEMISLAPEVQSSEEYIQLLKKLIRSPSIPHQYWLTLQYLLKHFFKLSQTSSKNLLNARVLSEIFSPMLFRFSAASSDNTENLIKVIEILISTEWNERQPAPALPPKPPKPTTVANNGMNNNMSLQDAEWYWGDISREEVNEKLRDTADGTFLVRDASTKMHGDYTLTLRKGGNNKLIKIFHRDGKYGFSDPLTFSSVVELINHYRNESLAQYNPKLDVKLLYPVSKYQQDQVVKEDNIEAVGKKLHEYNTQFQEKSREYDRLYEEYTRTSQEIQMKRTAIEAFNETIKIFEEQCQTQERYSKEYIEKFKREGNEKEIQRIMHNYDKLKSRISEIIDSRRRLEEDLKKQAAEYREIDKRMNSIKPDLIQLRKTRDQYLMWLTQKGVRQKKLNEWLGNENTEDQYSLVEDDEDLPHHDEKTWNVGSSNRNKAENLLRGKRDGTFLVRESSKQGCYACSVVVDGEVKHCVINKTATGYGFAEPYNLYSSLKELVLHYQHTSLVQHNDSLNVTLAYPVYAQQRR
Summary of the method: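 Inhibition of human PI3Kδ was assessed with the Millipore PI 3-Kinase (human) HTRF Assay kit. PI3Kδ was screened at 2 ng/well, diluted in 2×PIP2 operating fluid. Reactions were 20 μL and contained 100 μM ATP. Stop solution was Stop A and Stop B mixed 3:1. Detection solution was DM C, DM A and DM B mixed 18:1:1. Compounds were prepared from DMSO stocks, and percent inhibition was reported.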

[5] = system: U87MG human glioblastoma Multiforme cell strain; assay: Antitumor cell proliferation in vitro, CCK-8 detection kit, U87MG; assay type: cell-based; settings: U-87 MG, 72 h, U-87MG cells, 1st and 2nd test where printed
Description: as §1
U87MG human glioblastoma Multiforme cell strain (cell bank of Chinese Academy of Sciences)
as §2, §3, §4, §5, §6, §7, §8, §9

[6] = molecular target: T2, PDGFR β enzyme (Homo sapiens, UniProt P09619); assay: Inhibitory activity to PDGFR β enzyme, HTRF kinEASE TK kit; assay type: biochemical; settings: read-out: Inhibition rate % (PDGFR β)
T2 construct: purchased Invitrogen P3082
T2 sequence (P09619 33-1106): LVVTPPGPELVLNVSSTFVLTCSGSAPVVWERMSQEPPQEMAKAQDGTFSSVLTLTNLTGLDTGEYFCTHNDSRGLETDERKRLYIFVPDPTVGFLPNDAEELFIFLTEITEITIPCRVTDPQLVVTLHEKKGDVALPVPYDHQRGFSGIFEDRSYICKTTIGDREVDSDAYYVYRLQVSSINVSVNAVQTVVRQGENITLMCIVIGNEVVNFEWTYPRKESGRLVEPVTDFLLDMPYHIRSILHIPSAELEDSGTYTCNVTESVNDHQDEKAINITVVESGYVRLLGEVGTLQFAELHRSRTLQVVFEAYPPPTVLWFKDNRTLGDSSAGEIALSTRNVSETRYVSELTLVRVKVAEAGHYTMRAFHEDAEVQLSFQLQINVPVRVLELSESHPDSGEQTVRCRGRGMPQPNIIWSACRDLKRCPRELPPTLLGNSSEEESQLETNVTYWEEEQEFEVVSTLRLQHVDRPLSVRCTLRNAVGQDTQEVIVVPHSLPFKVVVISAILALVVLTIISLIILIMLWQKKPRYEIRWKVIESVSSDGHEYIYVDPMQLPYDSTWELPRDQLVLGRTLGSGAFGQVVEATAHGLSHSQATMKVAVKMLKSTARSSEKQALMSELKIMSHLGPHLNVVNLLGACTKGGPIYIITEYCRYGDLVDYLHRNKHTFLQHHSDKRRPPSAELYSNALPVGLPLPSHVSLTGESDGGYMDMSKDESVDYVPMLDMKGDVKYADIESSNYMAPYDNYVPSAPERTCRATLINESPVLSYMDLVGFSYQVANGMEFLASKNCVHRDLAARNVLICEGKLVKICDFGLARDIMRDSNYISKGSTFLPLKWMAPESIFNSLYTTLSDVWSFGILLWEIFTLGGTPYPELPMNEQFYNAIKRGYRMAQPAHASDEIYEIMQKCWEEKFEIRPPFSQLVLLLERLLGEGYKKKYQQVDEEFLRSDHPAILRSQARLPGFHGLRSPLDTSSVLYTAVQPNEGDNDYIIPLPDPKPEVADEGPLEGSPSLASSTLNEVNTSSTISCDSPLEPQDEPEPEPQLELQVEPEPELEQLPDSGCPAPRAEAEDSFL
Summary of the method: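 Recombinant human PDGFRβ phosphorylating TK-substrate in kinase buffer containing MgCl2, MnCl2, DTT and SEB, with ATP. Phosphorylation detected by HTRF using TK-Ab-Cryptate and Sa-XL665.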

[7] = molecular target: T3, PI3 K γ (Homo sapiens, UniProt P48736); assay: Inhibitory activity to PI3K γ, PI 3-Kinase (human) HTRF Assay kit; assay type: biochemical; settings: read-out: Inhibition rate % to PI3 K γ
T3 construct: purchased Biology, Medicilon
T3 sequence (P48736 whole entry): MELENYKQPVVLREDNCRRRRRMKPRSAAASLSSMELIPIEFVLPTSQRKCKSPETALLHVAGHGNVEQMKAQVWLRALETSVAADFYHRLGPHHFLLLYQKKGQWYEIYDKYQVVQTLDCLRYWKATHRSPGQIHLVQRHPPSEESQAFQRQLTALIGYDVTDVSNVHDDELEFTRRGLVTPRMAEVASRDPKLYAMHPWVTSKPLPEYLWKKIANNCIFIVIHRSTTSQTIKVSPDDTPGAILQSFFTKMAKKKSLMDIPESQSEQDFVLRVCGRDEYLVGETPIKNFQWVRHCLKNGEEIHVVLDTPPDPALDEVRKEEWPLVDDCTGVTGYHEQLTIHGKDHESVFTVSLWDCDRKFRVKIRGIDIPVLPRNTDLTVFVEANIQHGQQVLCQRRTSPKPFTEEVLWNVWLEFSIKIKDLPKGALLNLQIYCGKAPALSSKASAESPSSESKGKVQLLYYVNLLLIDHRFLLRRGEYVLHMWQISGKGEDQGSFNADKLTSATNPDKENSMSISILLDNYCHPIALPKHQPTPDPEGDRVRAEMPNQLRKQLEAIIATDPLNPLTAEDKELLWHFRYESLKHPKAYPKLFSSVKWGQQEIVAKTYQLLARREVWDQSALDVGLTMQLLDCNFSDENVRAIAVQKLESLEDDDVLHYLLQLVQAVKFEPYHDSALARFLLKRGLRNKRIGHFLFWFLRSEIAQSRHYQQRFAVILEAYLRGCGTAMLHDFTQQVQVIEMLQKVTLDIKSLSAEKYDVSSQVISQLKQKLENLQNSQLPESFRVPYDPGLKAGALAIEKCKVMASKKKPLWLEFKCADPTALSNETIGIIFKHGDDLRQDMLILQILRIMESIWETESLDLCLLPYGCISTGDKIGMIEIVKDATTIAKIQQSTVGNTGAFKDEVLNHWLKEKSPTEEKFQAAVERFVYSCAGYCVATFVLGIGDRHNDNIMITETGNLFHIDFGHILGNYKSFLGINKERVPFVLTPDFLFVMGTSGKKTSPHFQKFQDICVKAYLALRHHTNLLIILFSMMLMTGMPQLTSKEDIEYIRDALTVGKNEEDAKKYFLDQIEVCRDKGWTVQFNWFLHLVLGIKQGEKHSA
Summary of the method: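 HTRF kinase assay with PI3Kγ at 80 ng/well, 10 μM PIP2 and 100 μM ATP (both final) in DTT-containing reaction buffer, 1% DMSO. Preliminary screen at 10 μM and 1 μM compound, followed by IC50 determination for selected compounds.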

IC50 ([3]; Homo sapiens, PC-3, PC-3 cells) [nM]	IC50 [5] [nM]	Inhibition rate % to PI3K delta ([4]; 0.4 μM (Table 8), 0.4 µM) [%]	Inhibition rate % to PI3K delta ([4]; 2 μM (Table 8), 2 µM) [%]	Inhibition rate % to PI3K delta ([4]; 10 μM (Table 8), 10 µM) [%]	Compound	IC50 ([1]; Homo sapiens, PC-3, 72 h) [nM]	IC50 ([1]; 72 hours) [nM]	IC50 ([2]; 72 hours) [nM]	IC50 ([2]; Homo sapiens, BT-474, 72 h) [nM]	IC50 ([3]; PC-3 cells) [nM]	inhibition at 0.4 µM ([4]; 0.4 μM (Table 8)) [%]	inhibition at 2 µM ([4]; 2 μM (Table 8)) [%]	inhibition at 10 µM ([4]; 10 μM (Table 8)) [%]	inhibition at 1 µM ([6]; 1 μM) [%]	inhibition at 10 µM ([6]; 10 μM) [%]	inhibition at 1 µM ([7]; 1 μM) [%]	inhibition at 10 µM ([7]; 10 μM) [%]
116	18300	30.22	57.34	94.36	c1ccc(-c2ccnc3ccc(Nc4nc(N5CCOCC5)c5nc[nH]c5n4)cc23)cc1 [MED1007-109S, N-(6-morpholine-9H-purine-2-yl)-4-phenyl quinoline-6-amine dihydrate di-methanesulfonate]	696	–	–	612	–	–	–	–	–	–	–	–
260	7360	–	–	–	c1cc(C2CC2)c2cc(Nc3nc(NC4CC4)c4nc[nH]c4n3)ccc2n1 [MED1007-115, N6-cyclopropyl-N2-(4-cyclopropylquinoline-6-yl)-9H-purine-2,6-diamine dihydrate di-methanesulfonate]	1570	–	–	1950	–	36.8	60.2	94.6	–	–	–	–

Compound	IC50 ([3]; Homo sapiens, PC-3, PC-3 cells) [nM]	IC50 [5] [nM]	Inhibition rate % to PI3K delta ([4]; 0.4 μM (Table 8), 0.4 µM) [%]	Inhibition rate % to PI3K delta ([4]; 2 μM (Table 8), 2 µM) [%]	Inhibition rate % to PI3K delta ([4]; 10 μM (Table 8), 10 µM) [%]	IC50 ([1]; Homo sapiens, PC-3, 72 h) [nM]	IC50 ([1]; 72 hours) [nM]	IC50 ([2]; 72 hours) [nM]	IC50 ([2]; Homo sapiens, BT-474, 72 h) [nM]	IC50 ([3]; PC-3 cells) [nM]	inhibition at 0.4 µM ([4]; 0.4 μM (Table 8)) [%]	inhibition at 2 µM ([4]; 2 μM (Table 8)) [%]	inhibition at 10 µM ([4]; 10 μM (Table 8)) [%]	inhibition at 1 µM ([6]; 1 μM) [%]	inhibition at 10 µM ([6]; 10 μM) [%]	inhibition at 1 µM ([7]; 1 μM) [%]	inhibition at 10 µM ([7]; 10 μM) [%]
CC(C)Oc1nc(Nc2ccc3nccc(-c4ccccc4)c3c2)nc2[nH]cnc12 [MED1007-108, N-(6-isopropoxy-9H-purine-2-yl)-4-(phenyl-1-yl) quinoline-6-amine-methanesulfonate]	3.83	–	–	–	–	71.6	113	35	63	6.51	40.5	78.6	89	–	–	–	–
c1cnc2ccc(Nc3nc(NC4CC4)c4nc[nH]c4n3)cc2c1 [XC-302, reference compound]	–	17800	–	–	–	15000	–	–	5870	–	–	–	–	51.1	96.5	18.3	49.3
